Reference: ChEMBL document CHEMBL5725750, “Bifunctional compounds and use for reducing uric acid levels” (2018)
pIC50: −log10 of the molar value.

Molecular target: Xanthine dehydrogenase/oxidase (Homo sapiens, UniProt P47989)
Test: xanthine oxidase activity: Xanthine oxidase inhibition was determined using a standard fluorescence-based assay for xanthine oxidase activity (McHale A, Grimes H, Coughlan M P: Int J Biochem. 10:317-9, 1979) with minor variations. […] Experiments on test compounds were performed in triplicate in multi-well plates using 10 concentrations of each compound that ranged over a 3-fold dilution.

Chain of Xanthine dehydrogenase/oxidase (P47989 whole entry): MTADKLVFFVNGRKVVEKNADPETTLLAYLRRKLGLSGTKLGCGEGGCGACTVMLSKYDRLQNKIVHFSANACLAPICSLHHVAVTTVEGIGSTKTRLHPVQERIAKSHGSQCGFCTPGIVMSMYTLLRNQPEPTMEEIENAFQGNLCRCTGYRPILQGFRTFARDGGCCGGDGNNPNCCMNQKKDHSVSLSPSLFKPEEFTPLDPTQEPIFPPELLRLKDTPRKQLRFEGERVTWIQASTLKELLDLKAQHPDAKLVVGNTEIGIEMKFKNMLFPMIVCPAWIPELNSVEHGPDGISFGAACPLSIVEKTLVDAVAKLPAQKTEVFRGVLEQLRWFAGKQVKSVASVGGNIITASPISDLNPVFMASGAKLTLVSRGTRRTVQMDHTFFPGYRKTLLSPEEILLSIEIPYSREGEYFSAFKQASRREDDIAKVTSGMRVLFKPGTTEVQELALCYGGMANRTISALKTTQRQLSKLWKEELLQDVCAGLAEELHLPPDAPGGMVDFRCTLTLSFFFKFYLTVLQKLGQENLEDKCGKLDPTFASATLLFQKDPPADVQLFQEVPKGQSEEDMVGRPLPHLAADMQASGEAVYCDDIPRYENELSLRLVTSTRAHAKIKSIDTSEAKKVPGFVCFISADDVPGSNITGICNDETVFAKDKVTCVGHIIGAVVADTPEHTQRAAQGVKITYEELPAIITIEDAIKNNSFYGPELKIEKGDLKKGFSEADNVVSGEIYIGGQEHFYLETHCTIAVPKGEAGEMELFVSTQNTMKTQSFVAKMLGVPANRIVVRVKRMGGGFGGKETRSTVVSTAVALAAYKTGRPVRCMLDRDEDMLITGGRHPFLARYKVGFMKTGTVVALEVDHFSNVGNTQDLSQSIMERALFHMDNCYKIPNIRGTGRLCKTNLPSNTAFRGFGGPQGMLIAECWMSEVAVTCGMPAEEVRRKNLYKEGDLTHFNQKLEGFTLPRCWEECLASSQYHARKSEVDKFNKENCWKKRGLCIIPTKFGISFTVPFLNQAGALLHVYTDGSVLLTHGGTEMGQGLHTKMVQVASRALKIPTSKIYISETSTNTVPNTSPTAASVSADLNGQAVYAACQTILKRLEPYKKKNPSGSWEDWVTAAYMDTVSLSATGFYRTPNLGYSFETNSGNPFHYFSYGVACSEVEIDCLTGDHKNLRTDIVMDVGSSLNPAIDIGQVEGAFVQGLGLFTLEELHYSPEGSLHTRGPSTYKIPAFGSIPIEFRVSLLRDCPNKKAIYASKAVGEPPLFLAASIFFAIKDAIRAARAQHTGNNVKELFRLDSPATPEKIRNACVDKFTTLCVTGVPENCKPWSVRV

O=C(O)CSc1nnc(Br)n1-c1ccc(C2CC2)c2ccccc12 was tested, and the pIC50 was < 3.52.
